# Literature values, collected in US11414692B2, “Method and device for characterizing the inhibitory capacity of a molecule on a microorganism” (BIOMERIEUX, priority 2014, dated 2022).
# System: E. coli ATCC 25922
# Details: manual technique, incubation time 18 to 24 h
row,Compound,"MIC concentration recognized by the French government, or ""regulatory"" MIC [µg/mL]"
1,O=C(N[C@H](CO)[C@H](O)c1ccc([N+](=O)[O-])cc1)C(Cl)Cl [chloramphenicol],4
2,CCn1cc(C(=O)O)c(=O)c2ccc(C)nc21 [nalidixic acid],2
3,gentamicin,0.5
